How the values were obtained:
pigweed [1] = experiment: Test A postemergence; assay type: in vivo, Amaranthus retroflexus; settings: Amaranthus retroflexus, post-emergence, 240 h, 0 to 100 scale (0 no effect, 100 complete control), approx. 10 d, read-out: Plant response rating, Pigweed
Method in brief: (§1)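 Test chemicals, formulated in a surfactant-containing non-phytotoxic solvent mixture, are applied either as a directed soil spray to newly planted seeds or as a postemergence application to plants at the one- to two-leaf stage (2–10 cm). All plants grow in a loam soil and sand blend.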

wheat = experiment: Test A postemergence; assay type: in vivo, Triticum aestivum; settings: Triticum aestivum, post-emergence, 240 h, 0 to 100 scale (0 no effect, 100 complete control), approx. 10 d, read-out: Plant response rating, Wheat
Method in brief: as §1

ryegrass, Italian = experiment: Test C postemergence; assay type: in vivo, Lolium multiflorum
Method in brief: (§2)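 Test chemicals in a non-phytotoxic solvent mixture with surfactant were applied to pots of plants at 2 to 18 cm (1- to 4-leaf stage) for postemergence treatment, grown in a peat-based medium with vermiculite, starter nutrients and dolomitic limestone. Preemergence treatment was to seeds freshly planted in loam soil mixed with sand.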

wheat (winter wheat) = experiment: Test C postemergence; assay type: in vivo, Triticum aestivum
Method in brief: as §2

chickweed = experiment: Test C postemergence; assay type: in vivo, Stellaria media
Method in brief: as §2

galium = experiment: Test C postemergence; assay type: in vivo, Galium aparine
Method in brief: as §2

nutsedge, yellow = experiment: Test C postemergence; assay type: in vivo, Cyperus esculentus
Method in brief: as §2

soybean = experiment: Test C postemergence; assay type: in vivo, Glycine max
Method in brief: as §2

foxtail, giant [2] = experiment: Test A postemergence; assay type: in vivo, Setaria faberii; settings: Setaria faberi, post-emergence, 240 h, 0 to 100 scale (0 no effect, 100 complete control), approx. 10 d, read-out: Plant response rating, Foxtail, Giant
Method in brief: as §1

pigweed [3] = experiment: Test A preemergence; assay type: in vivo, Amaranthus retroflexus; settings: Amaranthus retroflexus, pre-emergence, 240 h, 0 to 100 scale (0 no effect, 100 complete control), read-out: Plant response rating, Pigweed
Method in brief: as §1

oat, wild = experiment: Test C postemergence; assay type: in vivo, Avena fatua
Method in brief: as §2

lambsquarters = experiment: Test C postemergence; assay type: in vivo, Chenopodium album
Method in brief: as §2

barnyardgrass [4] = experiment: Test B flooded paddy test; assay type: in vivo, Echinochloa crus-galli; settings: Echinochloa crus-galli, 360 h, 250 g ai/ha, applied to paddy water at 2-leaf stage, visual rating after 13 to 15 d, scale 0 (no effect) to 100 (complete control), read-out: Plant response rating, Barnyardgrass, Flood
Method in brief: (§3)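 Pots were flooded to 3 cm above the soil at treatment, and compounds were applied directly into the paddy water. That depth was held throughout. After 13 to 15 d in a greenhouse, plants were rated visually against untreated controls.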

oilseed rape = experiment: Test C postemergence; assay type: in vivo, Brassica napus
Method in brief: as §2

corn = experiment: Test C postemergence; assay type: in vivo, Zea mays
Method in brief: as §2

barnyardgrass [5] = experiment: Test C postemergence; assay type: in vivo, Echinochloa crus-galli
Method in brief: as §2

sedge, umbrella = experiment: Test B flooded paddy test; assay type: in vivo, Cyperus difformis; settings: Cyperus difformis, 360 h, 250 g ai/ha, applied to paddy water at 2-leaf stage, visual rating after 13 to 15 d, scale 0 (no effect) to 100 (complete control), read-out: Plant response rating, Sedge, Umbrella, Flood
Method in brief: as §3

blackgrass = experiment: Test C postemergence; assay type: in vivo, Alopecurus myosuroides
Method in brief: as §2

foxtail, giant [6] = experiment: Test C postemergence; assay type: in vivo, Setaria faberii
Method in brief: as §2

waterhemp = experiment: Test C postemergence; assay type: in vivo, Amaranthus rudis
Method in brief: as §2

SMILES: CCCc1nc(-c2ccc(F)cc2)nn1Cc1ccnc(C(F)(F)F)c1 [Compound 6, 4-[[3-(4-fluorophenyl)-5-propyl-1H-1,2,4-triazol-1-yl]methyl]-2-(trifluoromethyl)pyridine]
- pest or weed control at 125 g/ha (pigweed [1]; 125 g ai/ha): 50%
- pest or weed control at 500 g/ha (pigweed [1]; 500 g ai/ha): 100%
- plant injury at 125 g/ha (wheat; 125 g ai/ha): 40%
- plant injury at 500 g/ha (wheat; 500 g ai/ha): 70%
- Plant response rating (scale of 0 to 100 where 0 is no effect and 100 is complete control) (ryegrass, Italian; 31 g ai/ha): 5
- Plant response rating (scale of 0 to 100 where 0 is no effect and 100 is complete control) (ryegrass, Italian; 62 g ai/ha): 5
- Plant response rating (scale of 0 to 100 where 0 is no effect and 100 is complete control) (ryegrass, Italian; 125 g ai/ha): 5
- Plant response rating (scale of 0 to 100 where 0 is no effect and 100 is complete control) (ryegrass, Italian; 250 g ai/ha): 10
- Plant response rating (scale of 0 to 100 where 0 is no effect and 100 is complete control) (wheat (winter wheat); 31 g ai/ha): 5
- Plant response rating (scale of 0 to 100 where 0 is no effect and 100 is complete control) (wheat (winter wheat); 62 g ai/ha): 10
- Plant response rating (scale of 0 to 100 where 0 is no effect and 100 is complete control) (wheat (winter wheat); 125 g ai/ha): 15
- Plant response rating (scale of 0 to 100 where 0 is no effect and 100 is complete control) (wheat (winter wheat); 250 g ai/ha): 15
- Plant response rating (scale of 0 to 100 where 0 is no effect and 100 is complete control) (chickweed; 31 g ai/ha): 70
- Plant response rating (scale of 0 to 100 where 0 is no effect and 100 is complete control) (chickweed; 62 g ai/ha): 80
- Plant response rating (scale of 0 to 100 where 0 is no effect and 100 is complete control) (chickweed; 125 g ai/ha): 85
- Plant response rating (scale of 0 to 100 where 0 is no effect and 100 is complete control) (chickweed; 250 g ai/ha): 95
- Plant response rating (scale of 0 to 100 where 0 is no effect and 100 is complete control) (galium; 31 g ai/ha): 80
- Plant response rating (scale of 0 to 100 where 0 is no effect and 100 is complete control) (galium; 62 g ai/ha): 80
- Plant response rating (scale of 0 to 100 where 0 is no effect and 100 is complete control) (galium; 125 g ai/ha): 90
- Plant response rating (scale of 0 to 100 where 0 is no effect and 100 is complete control) (galium; 250 g ai/ha): 90
- Plant response rating (scale of 0 to 100 where 0 is no effect and 100 is complete control) (nutsedge, yellow; 31 g ai/ha): 5
- Plant response rating (scale of 0 to 100 where 0 is no effect and 100 is complete control) (nutsedge, yellow; 62 g ai/ha): 5
- Plant response rating (scale of 0 to 100 where 0 is no effect and 100 is complete control) (nutsedge, yellow; 125 g ai/ha): 5
- Plant response rating (scale of 0 to 100 where 0 is no effect and 100 is complete control) (nutsedge, yellow; 250 g ai/ha): 5
- Plant response rating (scale of 0 to 100 where 0 is no effect and 100 is complete control) (soybean; 31 g ai/ha): 35
- Plant response rating (scale of 0 to 100 where 0 is no effect and 100 is complete control) (soybean; 62 g ai/ha): 40
- Plant response rating (scale of 0 to 100 where 0 is no effect and 100 is complete control) (soybean; 125 g ai/ha): 60
- pest or weed control at 125 g/ha (foxtail, giant [2]; 125 g ai/ha): 90%
- pest or weed control at 500 g/ha (foxtail, giant [2]; 500 g ai/ha): 90%
- pest or weed control at 125 g/ha (pigweed [3]; 125 g ai/ha): 100%
- pest or weed control at 500 g/ha (pigweed [3]; 500 g ai/ha, approx. 10 d): 100%
- Plant response rating (scale of 0 to 100 where 0 is no effect and 100 is complete control) (oat, wild; 31 g ai/ha): 5
- Plant response rating (scale of 0 to 100 where 0 is no effect and 100 is complete control) (oat, wild; 62 g ai/ha): 5
- Plant response rating (scale of 0 to 100 where 0 is no effect and 100 is complete control) (oat, wild; 125 g ai/ha): 10
- Plant response rating (scale of 0 to 100 where 0 is no effect and 100 is complete control) (oat, wild; 250 g ai/ha): 10
- Plant response rating (scale of 0 to 100 where 0 is no effect and 100 is complete control) (lambsquarters; 31 g ai/ha): 65
- Plant response rating (scale of 0 to 100 where 0 is no effect and 100 is complete control) (lambsquarters; 62 g ai/ha): 70
- Plant response rating (scale of 0 to 100 where 0 is no effect and 100 is complete control) (lambsquarters; 125 g ai/ha): 85
- Plant response rating (scale of 0 to 100 where 0 is no effect and 100 is complete control) (lambsquarters; 250 g ai/ha): 85
- pest or weed control at 250 g/ha (barnyardgrass [4]): 40%
- Plant response rating (scale of 0 to 100 where 0 is no effect and 100 is complete control) (oilseed rape; Oilsee Rape, 250 g ai/ha): 95
- Plant response rating (scale of 0 to 100 where 0 is no effect and 100 is complete control) (oilseed rape; Oilseed Rape, 31 g ai/ha): 55
- Plant response rating (scale of 0 to 100 where 0 is no effect and 100 is complete control) (oilseed rape; Oilseed Rape, 62 g ai/ha): 55
- Plant response rating (scale of 0 to 100 where 0 is no effect and 100 is complete control) (oilseed rape; Oilseed Rape, 125 g ai/ha): 95
- Plant response rating (scale of 0 to 100 where 0 is no effect and 100 is complete control) (corn; 31 g ai/ha): 10
- Plant response rating (scale of 0 to 100 where 0 is no effect and 100 is complete control) (corn; 62 g ai/ha): 15
- Plant response rating (scale of 0 to 100 where 0 is no effect and 100 is complete control) (corn; 125 g ai/ha): 20
- Plant response rating (scale of 0 to 100 where 0 is no effect and 100 is complete control) (corn; 250 g ai/ha): 50
- Plant response rating (scale of 0 to 100 where 0 is no effect and 100 is complete control) (barnyardgrass [5]; 31 g ai/ha): 20
- Plant response rating (scale of 0 to 100 where 0 is no effect and 100 is complete control) (barnyardgrass [5]; 62 g ai/ha): 20
- Plant response rating (scale of 0 to 100 where 0 is no effect and 100 is complete control) (barnyardgrass [5]; 125 g ai/ha): 25
- Plant response rating (scale of 0 to 100 where 0 is no effect and 100 is complete control) (barnyardgrass [5]; 250 g ai/ha): 40
- pest or weed control at 250 g/ha (sedge, umbrella): 80%
- Plant response rating (scale of 0 to 100 where 0 is no effect and 100 is complete control) (blackgrass; 31 g ai/ha): 5
- Plant response rating (scale of 0 to 100 where 0 is no effect and 100 is complete control) (blackgrass; 62 g ai/ha): 5
- Plant response rating (scale of 0 to 100 where 0 is no effect and 100 is complete control) (blackgrass; 125 g ai/ha): 5
- Plant response rating (scale of 0 to 100 where 0 is no effect and 100 is complete control) (blackgrass; 250 g ai/ha): 10
- Plant response rating (scale of 0 to 100 where 0 is no effect and 100 is complete control) (foxtail, giant [6]; 31 g ai/ha): 40
- Plant response rating (scale of 0 to 100 where 0 is no effect and 100 is complete control) (foxtail, giant [6]; 62 g ai/ha): 40
- Plant response rating (scale of 0 to 100 where 0 is no effect and 100 is complete control) (foxtail, giant [6]; 125 g ai/ha): 45
- Plant response rating (scale of 0 to 100 where 0 is no effect and 100 is complete control) (foxtail, giant [6]; 250 g ai/ha): 75
- Plant response rating (scale of 0 to 100 where 0 is no effect and 100 is complete control) (waterhemp; 31 g ai/ha): 80
- Plant response rating (scale of 0 to 100 where 0 is no effect and 100 is complete control) (waterhemp; 62 g ai/ha): 80
- Plant response rating (scale of 0 to 100 where 0 is no effect and 100 is complete control) (waterhemp; 125 g ai/ha): 80
- Plant response rating (scale of 0 to 100 where 0 is no effect and 100 is complete control) (waterhemp; 250 g ai/ha): 85

— patent publication US10681909B2, “Herbicidal triazoles” (FMC Corporation, priority 2014, dated 2020)
